Data from patent US9732386B2, “Cell aging as a unique biomarker of major depression” (THE REGENTS OF THE UNIVERSITY OF CALIFORNIA, priority 2010, dated 2017).

Tested on: subjects with Major Depressive Disorder
Assay: Hamilton Depression Rating Scale (HDRS) ratings over 8 weeks of open-label sertraline treatment
Assay type: in vivo, human

CN[C@H]1CC[C@@H](c2ccc(Cl)c(Cl)c2)c2ccccc21 [sertraline]
HDRS ratings, Mean±SD (Week 8 of sertraline treatment, 50 to max 200 mg per day, 16 depressed subjects, Baseline 18.50±3.65, paired t=5.67, p<0.000): 10.19±4.62 | range of changes in HDRS ratings (over the 8-week course of sertraline treatment, individual subjects): 27% worsening to 82% improvement | mean improvement in HDRS ratings (over the 8-week course of sertraline treatment, relative to baseline): 42.3±31%
